For the assay, the system named is HeLa cells expressing H2B-mCherry and eGFP-tubulin. In words: Live-cell imaging of intracellular microtubule distribution. The assay is classed as cell-based. Here is the method:
For the microtubule distribution analysis, HeLa cell line stably expressing H2B-mCherry and eGFP-tubulin (a kind gift from Anthony A. Hyman, Max-Planck-Institute for Molecular Cell Biology and Genetics, Dresden, Germany) were treated with KIF2C inhibitors (10 μM DHTP or 10 μM 7S9) during imaging. Live-cell imaging was conducted on a Nikon T1 inverted fluorescence microscope (Nikon) with a 60× oil objective (Nikon), a Prime camera (Photometrics), and 37° C., 5% CO2 heat stage (Live Cell Instrument). Microtubule morphological changes were imaged at 3-min intervals. Images were obtained using ImageJ software processed with Gaussian Blur to remove the noise.

Consider `CCN1CCN(C(=O)COc2ccc(/C=c3\sc4n(c3=O)C(c3ccc(Cl)cc3)C(C(=O)OC(C)C)=C(C)N=4)cc2)CC1.O=C(O)/C=C\C(=O)O` (stereo not shown) [7S9 (133), isopropyl (Z)-5-(4-chlorophenyl)-2-(4-(2-(4-ethylpiperazin-1-yl)-2-oxoethoxy)benzylidene)-7-methyl-3-oxo-2,3-dihydro-5H-thiazolo[3,2-a]pyrimidine-6-carboxylate maleate], for which the “intracellular microtubule distribution phenotype (in words)” value was “puncta formation of tubulins in the cytoplasm”.
